{
  "source": "patent US9006250B2",
  "about": "“4-amino-6-(heterocyclic)picolinates and 6-amino-2-(heterocyclic)pyrimidine-4-carboxylates and their use as herbicides” (Dow AgroSciences, LLC, priority 2013, dated 2015)",
  "assay_in_all_cases": "Post-Emergent Test II herbicidal activity",
  "assay_type_in_all_cases": "in vivo",
  "key": {"[1]": {"system": "CHEAL: lambsquarters (Chenopodium album)", "conditions": "post-emergence, 336 h, 14 days, read-out: Visual Growth Reduction (%) 14 Days After Application CHEAL", "procedure": "(§1) Post-Emergent Test II: Seeds or nutlets of the desired test plant species were planted in Sun Gro Metro-Mix® 360 planting mixture, which typically has a pH of 6.0 to 6.8 and an organic matter content of about 30 percent, in plastic pots with a surface area of 64 square centimeters. When required to ensure good germination and healthy plants, a fungicide treatment and/or other chemical or physical treatment was applied. The plants were grown for 7-21 d in a greenhouse with an approximate 15 h photoperiod which was maintained at about 23-29° C. during the day and 22-28° C. during the night. Nutrients and water were added on a regular basis and supplemental lighting was provided with overhead metal halide 1000-Watt lamps as necessary. The plants were employed for testing when they reached the first or second true leaf stage.\n(§2) A weighed amount, determined by the highest rate to be tested, of each test compound was placed in a 25 mL glass vial and was dissolved in 4 mL of a 97:3 v/v mixture of acetone and DMSO to obtain concentrated stock solutions. […] The concentrated stock solutions obtained were diluted with 20 mL of an aqueous mixture containing acetone, water, isopropyl alcohol, DMSO, Atplus 411F crop oil concentrate, and Triton® X-155 surfactant in a 48.5:39:10:1.5:1.0:0.02 v/v ratio to obtain spray solutions containing the highest application rates. Additional application rates were obtained by serial dilution of 12 mL of the high rate solution into a solution containing 2 mL of 97:3 v/v mixture of acetone and DMSO and 10 mL of an aqueous mixture containing acetone, water, isopropyl alcohol, DMSO, Atplus 411F crop oil concentrate, and Triton X®-155 surfactant in a 48.5:39:10:1.5:1.0:0.02 v/v ratio to obtain ½×, ¼×, ⅛× and 1/16× rates of the high rate. Compound requirements are based upon a 12 mL application volume at a rate of 187 liters per hectare (L/ha). Formulated compounds were applied to the plant material with an overhead Mandel track sprayer equipped with 8002E nozzles calibrated to deliver 187 L/ha over an application area of 0.503 square meters at a spray height of 18 inches […] above the average plant canopy height. Control plants were sprayed in the same manner with the solvent blank.\n(§3) The treated plants and control plants were placed in a greenhouse as described above and watered by subirrigation to prevent wash-off of the test compounds. After 14 d, the condition of the test plants as compared with that of the untreated plants was determined visually and scored on a scale of 0 to 100 percent where 0 corresponds to no injury and 100 corresponds to complete kill."}, "[2]": {"system": "TRZAS: wheat, spring (Triticum aestivum)", "conditions": "post-emergence, 336 h, 14 days, read-out: Visual Growth Reduction (%) 14 Days After Application TRZAS", "procedure": "as §1, §2, §3"}, "[3]": {"system": "ABUTH: velvetleaf (Abutilon theophrasti)", "conditions": "post-emergence, 336 h, 14 days, read-out: Visual Growth Reduction (%) 14 Days After Application ABUTH", "procedure": "as §1, §2, §3"}, "[4]": {"system": "EPHHL: wild poinsettia (Euphorbia heterophylla)", "conditions": "post-emergence, 336 h, 14 days, read-out: Visual Growth Reduction (%) 14 Days After Application EPHHL", "procedure": "as §1, §2, §3"}, "[5]": {"system": "CYPES: yellow nutsedge (Cyperus esculentus)", "conditions": "post-emergence, 336 h, 14 days, read-out: Visual Growth Reduction (%) 14 Days After Application CYPES", "procedure": "as §1, §2, §3"}, "[6]": {"system": "ECHCG: barnyardgrass (Echinochloa crus-galli)", "conditions": "post-emergence, 336 h, 14 days, read-out: Visual Growth Reduction (%) 14 Days After Application ECHCG", "procedure": "as §1, §2, §3"}, "[7]": {"system": "SETFA: giant foxtail (Setaria faberi)", "conditions": "post-emergence, 336 h, 14 days, read-out: Visual Growth Reduction (%) 14 Days After Application SETFA", "procedure": "as §1, §2, §3"}, "[8]": {"system": "BRSNN: oilseed rape, canola (Brassica napus)", "conditions": "post-emergence, 336 h, 14 days, read-out: Visual Growth Reduction (%) 14 Days After Application BRSNN", "procedure": "as §1, §2, §3"}, "[9]": {"system": "ORYSA: rice (Oryza sativa)", "conditions": "post-emergence, 336 h, 14 days, read-out: Visual Growth Reduction (%) 14 Days After Application ORYSA", "procedure": "as §1, §2, §3"}, "[10]": {"system": "AMARE: redroot pigweed (Amaranthus retroflexus)", "conditions": "post-emergence, 336 h, 14 days, read-out: Visual Growth Reduction (%) 14 Days After Application AMARE", "procedure": "as §1, §2, §3"}, "[11]": {"system": "HELAN: sunflower (Helianthus annuus)", "conditions": "post-emergence, 336 h, 14 days, read-out: Visual Growth Reduction (%) 14 Days After Application HELAN", "procedure": "as §1, §2, §3"}, "[12]": {"system": "ZEAMX: maize, corn (Zea mays)", "conditions": "post-emergence, 336 h, 14 days, read-out: Visual Growth Reduction (%) 14 Days After Application ZEAMX", "procedure": "as §1, §2, §3"}},
  "data": [
    {"smiles": "Nc1c(F)c(-c2ccc3nsnc3c2)nc(C(=O)O)c1Cl", "note": "[Compound 12]", "values": [
      {"measurement": "pest or weed control at 35 g/ha", "setting": "[1]; 35 g ai/ha", "value": "85 to 94", "unit": "%"},
      {"measurement": "pest or weed control at 70 g/ha", "setting": "[1]; 70 g ai/ha", "value": "95 to 100", "unit": "%"},
      {"measurement": "pest or weed control at 140 g/ha", "setting": "[1]; 140 g ai/ha", "value": "95 to 100", "unit": "%"},
      {"measurement": "pest or weed control at 35 g/ha", "setting": "[2]; 35 g ai/ha", "value": "0 to 29", "unit": "%"},
      {"measurement": "pest or weed control at 70 g/ha", "setting": "[2]; 70 g ai/ha", "value": "0 to 29", "unit": "%"},
      {"measurement": "pest or weed control at 140 g/ha", "setting": "[2]; 140 g ai/ha", "value": "0 to 29", "unit": "%"},
      {"measurement": "pest or weed control at 35 g/ha", "setting": "[3]; 35 g ai/ha", "value": "85 to 94", "unit": "%"},
      {"measurement": "pest or weed control at 70 g/ha", "setting": "[3]; 70 g ai/ha", "value": "85 to 94", "unit": "%"},
      {"measurement": "pest or weed control at 140 g/ha", "setting": "[3]; 140 g ai/ha", "value": "85 to 94", "unit": "%"},
      {"measurement": "pest or weed control at 35 g/ha", "setting": "[4]; 35 g ai/ha", "value": "95 to 100", "unit": "%"},
      {"measurement": "pest or weed control at 70 g/ha", "setting": "[4]; 70 g ai/ha", "value": "95 to 100", "unit": "%"},
      {"measurement": "pest or weed control at 140 g/ha", "setting": "[4]; 140 g ai/ha", "value": "95 to 100", "unit": "%"},
      {"measurement": "pest or weed control at 35 g/ha", "setting": "[5]; 35 g ai/ha", "value": "0 to 29", "unit": "%"},
      {"measurement": "pest or weed control at 70 g/ha", "setting": "[5]; 70 g ai/ha", "value": "0 to 29", "unit": "%"},
      {"measurement": "pest or weed control at 140 g/ha", "setting": "[5]; 140 g ai/ha", "value": "0 to 29", "unit": "%"},
      {"measurement": "pest or weed control at 35 g/ha", "setting": "[6]; 35 g ai/ha", "value": "75 to 84", "unit": "%"},
      {"measurement": "pest or weed control at 70 g/ha", "setting": "[6]; 70 g ai/ha", "value": "75 to 84", "unit": "%"},
      {"measurement": "pest or weed control at 140 g/ha", "setting": "[6]; 140 g ai/ha", "value": "85 to 94", "unit": "%"},
      {"measurement": "pest or weed control at 35 g/ha", "setting": "[7]; 35 g ai/ha", "value": "0 to 29", "unit": "%"},
      {"measurement": "pest or weed control at 70 g/ha", "setting": "[7]; 70 g ai/ha", "value": "0 to 29", "unit": "%"},
      {"measurement": "pest or weed control at 140 g/ha", "setting": "[7]; 140 g ai/ha", "value": "75 to 84", "unit": "%"},
      {"measurement": "pest or weed control at 35 g/ha", "setting": "[8]; 35 g ai/ha", "value": "75 to 84", "unit": "%"},
      {"measurement": "pest or weed control at 70 g/ha", "setting": "[8]; 70 g ai/ha", "value": "75 to 84", "unit": "%"},
      {"measurement": "pest or weed control at 140 g/ha", "setting": "[8]; 140 g ai/ha", "value": "75 to 84", "unit": "%"},
      {"measurement": "pest or weed control at 35 g/ha", "setting": "[9]; 35 g ai/ha", "value": "0 to 29", "unit": "%"},
      {"measurement": "pest or weed control at 70 g/ha", "setting": "[9]; 70 g ai/ha", "value": "0 to 29", "unit": "%"},
      {"measurement": "pest or weed control at 140 g/ha", "setting": "[9]; 140 g ai/ha", "value": "0 to 29", "unit": "%"},
      {"measurement": "pest or weed control at 35 g/ha", "setting": "[10]; 35 g ai/ha", "value": "95 to 100", "unit": "%"},
      {"measurement": "pest or weed control at 70 g/ha", "setting": "[10]; 70 g ai/ha", "value": "95 to 100", "unit": "%"},
      {"measurement": "pest or weed control at 140 g/ha", "setting": "[10]; 140 g ai/ha", "value": "95 to 100", "unit": "%"},
      {"measurement": "pest or weed control at 35 g/ha", "setting": "[11]; 35 g ai/ha", "value": "95 to 100", "unit": "%"},
      {"measurement": "pest or weed control at 70 g/ha", "setting": "[11]; 70 g ai/ha", "value": "95 to 100", "unit": "%"},
      {"measurement": "pest or weed control at 140 g/ha", "setting": "[11]; 140 g ai/ha", "value": "95 to 100", "unit": "%"},
      {"measurement": "pest or weed control at 35 g/ha", "setting": "[12]; 35 g ai/ha", "value": "60 to 74", "unit": "%"},
      {"measurement": "pest or weed control at 70 g/ha", "setting": "[12]; 70 g ai/ha", "value": "60 to 74", "unit": "%"},
      {"measurement": "pest or weed control at 140 g/ha", "setting": "[12]; 140 g ai/ha", "value": "75 to 84", "unit": "%"}
    ]}
  ]
}
